Earlier results, collected in patent publication US20200179352A1, “USE OF VALBENAZINE FOR TREATING LEVODOPA-INDUCED DYSKINESIA” (Neurocrine Biosciences, Inc., priority 2017, published 2020).

Conditions: series of 448 patients with various hyperkinetic movement disorders treated with tetrabenazine from 1997-2004

SMILES: COc1cc2c(cc1OC)C1CC(=O)C(CC(C)C)CN1CC2 (stereo not shown) [tetrabenazine, 3-isobutyl-9,10-dimethoxy-1,3,4,6,7,11b-hexahydro-2H-pyrido[2,1-a]isoquinolin-2-one]
- adverse event rate for parkinsonism: 15.4%
